Laboratory results as given in patent US9266840B2, “Bicyclic heterocyclic compound” (Astellas Pharma Inc., priority 2011, dated 2016).
Read-outs that look alike come from different tables or passages of the source.

Assays:
[1] = target: T1, recombinant human 11β-HSD1 (Homo sapiens, UniProt P28845); assay: Human 11β-HSD1 inhibitory activity (HTRF cortisol detection); type: biochemical; settings: recombinant human 11β-HSD1, 200 nM cortisone, 40 μM NADPH, 1 h room temperature
T1 construct: made in house
Method: (§1) Test Method 1: Test for Measuring Human 11β-HSD1/11β-HSD2 Inhibitory Activity
(§2) 11β-HSD1 inhibitory activity was measured in the following order. In addition, an enzymatic reaction and assay was performed using a 384-well plate. The enzyme was prepared according to a document (Walker E. A. et al., Journal of Biological Chemistry, 2001, Vol. 276, p. 21343-21350). The reaction was performed in a manner in which various concentrations of test compounds were added to a reaction liquid including a 10 mM a phosphoric acid buffer (pH 6.6), 200 nM cortisone, 40 μM reduced nicotinamide adenine dinucleotide phosphate (NADPH), and recombinant human 11β-HSD1, followed by incubation for an hour at room temperature (10 μl/well). The test compound was dissolved in dimethylsulfoxide (DMSO), and the DMSO concentration was adjusted so as to be 1% in the reaction liquid. After the enzymatic reaction, cortisol was detected using Homogenous Time-Resolved Fluorescence (HTRF) to measure enzyme inhibitory activity. XL-665-labeled cortisol including 400 μM carbenoxolone and a cryptate-labeled cortisol antibody (CIS bio international) were added respectively to the plate at 5 μl/well, followed by incubation for 2 hours at room temperature, and then fluorescence intensity was measured using a fluorospectrometer (trade name: Discovery, manufactured by PerkinElmer Inc.), thereby calculating enzyme inhibitory activity from the ratio of fluorescence intensity between two wavelengths (665 nm/620 nm).
(§3) The results of measurement were calculated by obtaining the average of the values of three wells under the same condition. The ratio obtained when DMSO was added instead of the test compound was regarded as 0%, and the ratio obtained when 11β-HSD1 or 11β-HSD2 was not added was regarded as 100%, whereby a concentration at which the test compound suppresses the enzyme activity by 50% was calculated as IC50 of the inhibitory activity of the compound.

[2] = target: T2, recombinant human 11β-HSD2 (Homo sapiens, UniProt P80365); assay: Human 11β-HSD2 inhibitory activity (HTRF); type: biochemical; settings: recombinant human 11β-HSD2, 200 nM cortisol, 200 μM NAD, 2 h 37° C.
T2 sequence (P80365 1-405): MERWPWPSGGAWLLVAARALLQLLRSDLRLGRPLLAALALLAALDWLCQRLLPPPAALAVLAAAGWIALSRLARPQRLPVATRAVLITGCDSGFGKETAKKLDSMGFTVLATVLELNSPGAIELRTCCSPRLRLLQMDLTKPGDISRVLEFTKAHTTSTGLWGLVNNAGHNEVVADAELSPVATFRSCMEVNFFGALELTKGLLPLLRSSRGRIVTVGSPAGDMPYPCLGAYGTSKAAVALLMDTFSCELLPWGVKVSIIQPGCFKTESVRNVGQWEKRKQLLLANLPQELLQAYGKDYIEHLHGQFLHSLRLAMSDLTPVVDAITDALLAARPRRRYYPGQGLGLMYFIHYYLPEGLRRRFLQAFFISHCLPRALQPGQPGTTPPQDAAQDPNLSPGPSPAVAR
Method: as §1, §2
11β-HSD2 inhibitory activity was measured in the same manner as in the measurement of the 11β-HSD1 inhibitory activity, except for the conditions of the enzymatic reaction. The enzymatic reaction was performed in the manner in which various concentrations of test substances were added to a reaction liquid including 40 mM tris-hydrochloric acid buffer (Tris-HCl) (pH 8.0), 200 nM cortisol, 200 μM nicotinamide adenine dinucleotide (NAD), and recombinant human 11β-HSD2, followed by incubation for 2 hours at 37° C. (10 μl/well).
as §3

[3] = system: spontaneous alternation behavior disorder induced by scopolamine; assay: Test for spontaneous alternation behavior disorder induced by scopolamine (Y-maze); type: in vivo, male ddY mice; settings: oral administration, ddY mice, scopolamine 0.5 mg/kg i.p.
Method: Test Method 2: Test for Spontaneous Alternation Behavior Disorder Induced by Scopolamine Test drugs were orally administered to 5- to 7-week old male ddY mice. 10 minutes later, scopolamine was intraperitoneally administered to the animals at 0.5 mg/kg. 20 minutes later, the animal was put in Y-maze having arms with the same length and extending in three directions and allowed to freely explore for 8 minutes. During the exploration, spontaneous arm-alternating behavior (entering different arms 3 times consecutively) was counted to calculate the rate of spontaneous alternation (spontaneous alternation behavior/(number of times of entering−2)×100), thereby judging drug efficacy.

[4] = system: spinal nerve ligation model; assay: Test for spinal nerve ligation model (von Frey hair test); type: in vivo, rats (SD, male); settings: 1 mg/kg orally, 1 hour before evaluation, threshold of 50% retraction response, pseudo-operation = 100%, solvent = 0%
Method: Test Method 3: Test for Spinal Nerve Ligation Model This test was performed according to Pain, 1992, Vol. 50, p 355-363. The skin and muscle in the lumbar region of rats (SD, male, 5- to 6-week old) were excised under pentobarbital anesthesia, and a lumbar L6 transverse process was removed to expose lumbar nerves. L5 and L6 spinal nerves were ligated with a silk thread, and then the wound was sutured. The procedure was performed in the left side. In addition, in the case of pseudo-operation, the wound was sutured without performing nerve ligation. The drug efficacy was evaluated on the postoperative days 7 to 12 by von Frey hair test. The threshold of retraction response was calculated according to Journal of Neuroscience Methods, 1994, Vol. 53, p 55-63. By using 8 types of von Frey filaments (0.41 g to 15.14 g), the sole of the rat's hindlimb was stimulated, and the threshold of 50% retraction response was determined by an up-and-down method. […] The test substance was evaluated by calculating the improvement rate of the test substance-administered group, under the condition that the threshold of the procedure-performed limb of the pseudo-operation animal group was regarded as 100% and the threshold of the procedure-performed limb of the solvent-administered animal group having undergone operation was regarded as 0%.

[5] = system: model with fibromyalgia caused by repeated reserpine administration; assay: Test for model with fibromyalgia caused by repeated reserpine administration (muscle tenderness threshold); type: in vivo, rats (SD, male); settings: 10 mg/kg orally, calculated point in time 60 min, healthy rat = 100%, reserpine + solvent = 0%
Method: Test Method 4: Test for Model with Fibromyalgia Caused by Repeated Reserpine Administration
This test was performed according to Pain, 2009, Vol. 146, p 26-33., by using rats (SD, male, 7-week old).
The threshold of muscle tenderness was measured according to the method of Schafers et al. (Pain, 2003, Vol. 104, p 579-588). A pressure stimulus slowly increasing up to 250 g was applied to the gastrocnemius muscle of the right lower leg of the rat. […] The measurement was performed 3 times for each point in time, and the average thereof was taken as a measured value.
A solvent (0.5% aqueous acetic acid) or reserpine (1 mg/kg) was subcutaneously administered to the back of the rat once a day for three days. The dose of both the solvent and reserpine administered was 1 mL per 1 kg of the body weight of the animal. 6 days after the beginning of the administration of the solvent or reserpine, the muscle tenderness threshold of each rat was measured, and the rats were grouped such that the difference in the average of threshold between the respective groups was reduced. The drug efficacy evaluation was performed on the next day. […] 30, 60, and 120 minutes after the administration, the muscle tenderness threshold was measured. For healthy rats, the drug was not administered, and only the muscle tenderness threshold was measured. […]

[6] = Pharmacokinetic test (plasma and brain concentration, LC-MS/MS); type: in vivo; settings: male, mouse, po, mice, 1 mg/kg orally, an hour after administration
Method: Test Method 5: Pharmacokinetic Test
A 0.5% methyl cellulose suspension including the test substance was orally administered to 5-week old male mice, and the blood and brain were collected after a certain time passed from the administration. The collected blood sample was treated with sodium heparin, and then the plasma was separated, thereby preparing a plasma sample. In addition, a phosphoric acid buffer (pH 7.0) was added to the collected brain sample, in an amount that was 4 times the weight of the brain, thereby preparing 20% brain homogenate. The concentration of the respective test substances in the plasma and brain was measured using LC-MS/MS. An hour after Example 8-1 was administered at 1 mg/kg, the concentration of the substance in the plasma was 153 ng/ml, and the concentration in the brain was 58 ng/ml.

[7] = system: cortisol in the brain homogenate; assay: Pharmacokinetic test under cortisone load (brain cortisol by ELISA); type: in vivo, male ddY mice; settings: Mus musculus; ddY mice, 1 mg/kg orally; cortisone 1 mg/kg i.p. after 30 min, brain collected 20 min later; read-out: inhibition rate (cortisol in brain)
Method: Test Method 6: Pharmacokinetic Test Under Cortisone Load
A 0.5% methyl cellulose solution or a 0.5% methyl cellulose suspension including the test substance was orally administered to 5-week old male ddY mice. After 30 minutes, cortisone was intraperitoneally administered at 1 mg/kg, and 20 minutes later, the brain was collected. A phosphoric acid buffer (pH 7.0) was added to the collected brain sample, in an amount that was 9 times the weight of the brain, thereby preparing 10% brain homogenate. The quantity of cortisol in the brain homogenate was determined by ELISA, and the inhibition rate resulting from the test substance was calculated, under the condition that the amount of cortisol produced from the mouse orally administered with 0.5% methyl cellulose was regarded as 100%.

T1 sequence (P28845 whole entry): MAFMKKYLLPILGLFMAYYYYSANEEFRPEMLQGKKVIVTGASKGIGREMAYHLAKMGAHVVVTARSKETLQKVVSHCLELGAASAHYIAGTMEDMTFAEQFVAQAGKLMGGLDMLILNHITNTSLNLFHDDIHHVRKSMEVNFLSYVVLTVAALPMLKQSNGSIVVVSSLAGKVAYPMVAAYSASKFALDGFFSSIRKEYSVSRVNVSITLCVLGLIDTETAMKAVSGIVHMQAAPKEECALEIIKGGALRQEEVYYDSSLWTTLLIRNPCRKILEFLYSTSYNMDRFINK

SMILES | IC50 [1] | IC50 [2] | also measured
N#Cc1cc(F)ccc1-c1ccc(C(=O)N(C2CC2)C2CCc3[nH]ncc3C2)cc1 (stereo not shown) [Example 176] | 0.088 µM |  | 
CC(F)(F)CCCn1ncc2c(C(=O)N(C3CC3)C3CCc4[nH]ncc4C3)cccc21 (stereo not shown) [Example 159] | 0.04 µM | > 30 µM | 
O=C(c1ccc(-c2c(F)cncc2F)cc1)N(C1CC1)C1CCc2n[nH]cc2C1 (stereo not shown) [Example 228] | 0.053 µM |  | 
O=C(c1ccc(-c2ccccc2F)o1)N(C1CC1)C1CCc2[nH]ncc2C1 (stereo not shown) [Example 27] | 0.062 µM | > 3 µM | 
COc1cc(OC(C)C)ccc1C(=O)N(C1CC1)C1CCc2[nH]ncc2C1 (stereo not shown) [Example 5, N-cyclopropyl-4-isopropoxy-2-methoxy-N-(4,5,6,7-tetrahydro-1H-indazol-5-yl)benzamide] | 0.056 µM |  | 
Cc1cc(C(=O)N(C2CC2)C2CCc3n[nH]cc3C2)c(C)n1Cc1ccc(F)cc1F (stereo not shown) [Example 30] | 0.028 µM | > 3 µM | 
N#Cc1ccccc1-c1ccc(C(=O)N(C2CC2)C2CCc3[nH]ncc3C2)cc1 (stereo not shown) [Example 1, 2′-cyano-N-cyclopropyl-N-(4,5,6,7-tetrahydro-1H-indazol-5-yl)biphenyl-4-carboxamide] | 0.048 µM | > 30 µM | 
CC(C)Cc1ccc(C(=O)N(C2CC2)C2CCc3[nH]ncc3C2)cc1 (stereo not shown) [Example 237] | 0.04 µM |  | 
O=C(c1ccc(-c2c(F)cccc2F)cc1)N(C1CC1)C1CCc2[nH]ncc2C1 (stereo not shown) [Example 216] | 0.043 µM |  | 

The next lines start with results.

IC50 [1] | IC50 [2] | SMILES | also measured
0.025 µM |  | N#Cc1ccccc1-c1ccc(C(=O)N(C2CC2)C2CCc3[nH]ncc3C2)c(F)c1 (stereo not shown) [Example 190] | 
0.038 µM | > 30 µM | COc1ccc(C(=O)N(C2CC2)C2CCc3[nH]ncc3C2)c2ccn(C)c12 (stereo not shown) [Example 132] | 
0.026 µM | > 30 µM | CC(C)Oc1ccc(C(=O)N(C2CC2)C2CCc3[nH]ncc3C2)cc1 (single isomer, unassigned; (-)) [Example 8-1, (−)-N-cyclopropyl-4-isopropoxy-N-(4,5,6,7-tetrahydro-1H-indazol-5-yl)benzamide] | Dose improving minimum spontaneous alternation rate [3]: 0.3 mg/kg; Improvement rate % (applied dose) [4]: 73 (1 mg/kg) %; Maximum improvement rate % (applied dose) [5]: 104 (10 mg/kg) %; concentration at 1 h ([6]; plasma, read-out: concentration of the substance in the plasma): 153 ng/mL; concentration at 1 h ([6]; brain homogenate, read-out: concentration in the brain): 58 ng/mL; inhibition at 1 mg/kg [7]: 43%
0.018 µM | > 3 µM | N#Cc1cccc(F)c1-c1ccc(C(=O)N(C2CC2)C2CCc3[nH]ncc3C2)cc1 (single isomer, unassigned; (-)) [Example 7-1, (−)-2′-cyano-N-cyclopropyl-6′-fluoro-N-(4,5,6,7-tetrahydro-1H-indazol-5-yl)biphenyl-4-carboxamide] | Dose improving minimum spontaneous alternation rate [3]: 1.0 mg/kg; Improvement rate % (applied dose) [4]: 52 (1 mg/kg) %; Maximum improvement rate % (applied dose) [5]: 82 (10 mg/kg) %
0.024 µM | > 30 µM | Cn1ccc2c(C(=O)N(C3CC3)C3CCc4[nH]ncc4C3)cccc21 (stereo not shown) [Example 81] | 
